Measured values: patent publication US11802120B2, “Fused cyclic urea derivatives as CRHR2 antagonist” (RaQualia Pharma Inc., priority 2018, dated 2023)

What follows are molecules tested against T1, human CRHR2-alpha (Homo sapiens, UniProt Q13324) (assay: cAMP functional assay for human CRHR2 (LANCE Ultra cAMP, TR-FRET)). Settings: CHO-K1 cells expressing human CRHR2-alpha, agonist human urocortin2 at EC80, cAMP; read-out: IC50 against CRHR2.
T1 sequence (Q13324 1-411): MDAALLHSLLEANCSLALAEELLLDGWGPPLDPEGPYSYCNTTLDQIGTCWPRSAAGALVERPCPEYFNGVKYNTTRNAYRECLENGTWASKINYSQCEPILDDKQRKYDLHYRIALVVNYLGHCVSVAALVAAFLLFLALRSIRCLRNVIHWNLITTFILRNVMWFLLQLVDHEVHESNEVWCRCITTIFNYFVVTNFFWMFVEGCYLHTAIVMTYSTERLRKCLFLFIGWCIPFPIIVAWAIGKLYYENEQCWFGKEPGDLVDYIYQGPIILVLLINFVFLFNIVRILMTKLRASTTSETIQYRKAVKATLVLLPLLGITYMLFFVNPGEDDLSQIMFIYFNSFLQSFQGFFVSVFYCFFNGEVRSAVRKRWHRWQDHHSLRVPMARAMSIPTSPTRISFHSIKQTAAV
Assay type: cell-based
Summary of the method: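 First, starved and frozen CHO-K1 cells expressing the receptor are thawed into IBMX-containing HBSS buffer (pH 7.4). Next, compounds are added for 30 min at 25° C. Then agonist at EC80 (urocortin2 or CRF, per receptor) is added for another 30 min, followed by cAMP detection reagents.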

Row | Compound | IC50 [nM]
1 | CNC(=O)c1ccc(-n2c(=O)n(C[C@H]3CC[C@H](NC(=O)c4cc(Cl)cnc4C(F)F)CC3)c3cccc(C)c32)cn1 [Example 527, 5-(3-(((1r,4r)-4-(5-chloro-2-(difluoromethyl)nicotinamido)cyclohexyl)methyl)-7-methyl-2-oxo-2,3-dihydro-1H-benzo [d]imidazol-1-yl)-N-methylpicolinamide] | < 300
2 | CNC(=O)c1ccc(-n2c(=O)n(C[C@H]3CC[C@H](NC(=O)c4cc(Cl)cnc4C4CCC4)CC3)c3ccccc32)cn1 [Example 322, 5-(3-(((1r,4r)-4-(5-chloro-2-cyclobutylnicotinamido)cyclohexyl)methyl)-2-oxo-2,3-dihydro-1H-benzo[d]imidazol-1-yl)-N-methyl-picolinamide] | < 300
3 | CCC(=O)Nc1ccc(-n2c(=O)n(C[C@H]3CC[C@H](NC(=O)c4cc(Cl)cnc4C(F)(F)F)CC3)c3ccccc32)cn1 [Example 643, 5-chloro-N-((1r,4r)-4-((2-oxo-3-(6-propionamido-pyridin-3-yl)-2,3-dihydro-1H-benzo[d]imidazol-1-yl)methyl)cyclohexyl)-2-(tri-fluoromethyl)nicotinamide] | < 300
4 | O=C(N[C@H]1CC[C@H](Cn2c(=O)n(-c3ccnc(N4CCOCC4)c3)c3ccccc32)CC1)c1cc(Cl)cnc1C(F)F [Example 686, 5-chloro-2-(difluoromethyl)-N-((1r,4r)-4-((3-(2-morpho-linopyridin-4-yl)-2-oxo-2,3-dihydro-1H-benzo[d]imidazol-1-yl)methyl)cyclohexyl) nicotinamide] | < 300
5 | O=C(N[C@H]1CC[C@H](Cn2c(=O)n(-c3ccc(N4CCOCC4)nc3)c3ccccc32)CC1)c1cc(Cl)cnc1C(F)F [Example 383, 5-chloro-2-(difluoromethyl)-N-((1r,4r)-4-((3-(6-morpholino-pyridin-3-yl)-2-oxo-2,3-dihydro-1H-benzo[d]imidazol-1-yl)methyl)cyclohexyl) nicotinamide] | < 300
6 | Cc1cc(-n2c(=O)n(C[C@H]3CC[C@H](NC(=O)c4cc(Cl)cnc4C(F)(F)F)CC3)c3ccccc32)ccn1 [Example 316, 5-chloro-N-((1r,4r)-4-((3-(2-methylpyridin-4-yl)-2-oxo-2,3-dihydro-1H-benzo [d]imidazol-1-yl)methyl)cyclohexyl)-2-(trifluoro-methyl)nicotinamide] | < 300
7 | O=C(NCC(F)F)c1ccc(-n2c(=O)n(C[C@H]3CC[C@H](NC(=O)c4cc(Cl)cnc4C(F)(F)F)CC3)c3ccccc32)cn1 [Example 411, 5-(3-(((1r,4r)-4-(5-chloro-2-(trifluoromethyl)nicotinamido)cyclohexyl)methyl)-2-oxo-2,3-dihydro-1H-benzo[d]imidazol-1-yl)-N-(2,2-difluoroethyl) picolinamide] | < 300
8 | COc1ccc(C#N)c(-n2c(=O)n(C[C@H]3CC[C@H](NC(=O)c4cc(Cl)cnc4C)CC3)c3ccccc32)c1 [Example 259, 5-chloro-N-((1r,4r)-4-((3-(2-cyano-5-methoxyphenyl)-2-oxo-2,3-dihydro-1H-benzo [d]imidazol-1-yl)methyl)cyclo-hexyl)-2-methylnicotinamide] | < 300
9 | CNC(=O)c1ccc(-n2c(=O)n(C[C@H]3CC[C@H](NC(=O)c4cc(Cl)cnc4C(F)F)CC3)c3cc(C)ccc32)cn1 [Example 529, 5-(3-(((1r,4r)-4-(5-chloro-2-(difluoromethyl)nicotinamido)cyclohexyl)methyl)-5-methyl-2-oxo-2,3-dihydro-1H-benzo [d]imidazol-1-yl)-N-methylpicolinamide] | < 300
10 | CCC(=O)Nc1cc(C)c(-n2c(=O)n(C[C@H]3CC[C@H](NC(=O)c4cc(Cl)cnc4C(F)F)CC3)c3ccccc32)cn1 [Example 560, 5-chloro-2-(difluoromethyl)-N-((1r,4r)-4-((3-(4-methyl-6-propionamidopyridin-3-yl)-2-oxo-2,3-dihydro-1H-benzo [d]imidazol-1-yl)methyl)cyclo-hexyl)nicotinamide] | < 300
11 | O=C(N[C@H]1CC[C@H](Cn2c(=O)n(Cc3ccccn3)c3ccccc32)CC1)c1cc(Cl)cnc1C(F)(F)F [Example 282, 5-chloro-N-((1r,4r)-4-((2-oxo-3-(pyridin-2-ylmethyl)-2,3-dihydro-1H-benzo[d]imidazol-1-yl)methyl)cyclohexyl)-2-(trifluoromethyl)nicotinamide] | < 300

Further lines, results first:

Row | IC50 [nM] | Compound
12 | < 300 | CNc1ncc(-n2c(=O)n(C[C@H]3CC[C@H](NC(=O)c4cc(Cl)cnc4C)CC3)c3ccccc32)cc1F [Example 552, 5-chloro-N-((1r,4r)-4-((3-(5-fluoro-6-(methylamino)pyridin-3-yl)-2-oxo-2,3-dihydro-1H-benzo[d]imidazol-1-yl)methyl)cyclohexyl)-2-methylnicotinamide]
13 | < 300 | Cn1cnc2cc(-n3c(=O)n(C[C@H]4CC[C@H](NC(=O)c5cc(Cl)cnc5C(F)F)CC4)c4ccccc43)ccc21 [Example 386, 5-chloro-2-(difluoromethyl)-N-((1r,4r)-4-((1′-methyl-2-oxo-1′H-[1,5′-bibenzo[d]imidazol]-3(2H)-yl)methyl)cyclohexyl)nicotinamide]
14 | < 300 | Cc1ncc(Cl)cc1C(=O)N[C@H]1CC[C@H](Cn2c(=O)n(-c3ccc4cccnc4c3)c3ccccc32)CC1 [Example 395, 5-chloro-2-methyl-N-((1r,4r)-4-((2-oxo-3-(quinolin-7-yl)-2,3-dihydro-1H-benzo[d]imidazol-1-yl)methyl)cyclo-hexyl)nicotinamide]
15 | < 300 | COCCn1nnc2cc(-n3c(=O)n(C[C@H]4CC[C@H](NC(=O)c5cc(Cl)cnc5C)CC4)c4ccccc43)ccc21 [Example 294, 5-chloro-N-((1r,4r)-4-((3-(1-(2-methoxyethyl)-1H-benzo[d][1,2,3]triazol-5-yl)-2-oxo-2,3-dihydro-1H-benzo[d]imidazol-1-yl)methyl)cyclohexyl)-2-methylnicotinamide]
16 | < 300 | Cc1ccc(-n2c(=O)n(C[C@H]3CC[C@H](NC(=O)c4cc(Cl)cnc4C)CC3)c3cc(F)ccc32)cn1 [Example 123, 5-chloro-N-((1r,4r)-4-((6-fluoro-3-(6-methylpyridin-3-yl)-2-oxo-2,3-dihydro-1H-benzo[d]imidazol-1-yl)methyl)cyclo-hexyl)-2-methylnicotinamide]
17 | < 300 | Cc1ncc(Cl)cc1C(=O)N[C@H]1CC[C@H](Cn2c(=O)n(-c3ccc(OCCCO)nc3)c3ccccc32)CC1 [Example 134, 5-chloro-N-((1r,4r)-4-((3-(6-(3-hydroxypropoxy)pyridin-3-yl)-2-oxo-2,3-dihydro-1H-benzo[d]imidazol-1-yl)methyl)cyclohexyl)-2-methylnicotinamide]
18 | < 300 | Cc1ncc(Cl)cc1C(=O)N[C@H]1CC[C@H](Cn2c(=O)n(-c3ccc(N4CC(F)C4)nc3)c3ccccc32)CC1 [Example 145, 5-chloro-N-((1r,4r)-4-((3-(6-(3-fluoroazetidin-1-yl)pyridin-3-yl)-2-oxo-2,3-dihydro-1H-benzo[d]imidazol-1-yl)methyl)cyclo-hexyl)-2-methylnicotinamide]
19 | < 300 | Cc1cc(-n2c(=O)n(C[C@H]3CC[C@H](NC(=O)c4cc(Cl)cnc4C)CC3)c3ccccc32)cnc1C [Example 119, 5-chloro-N-((1r,4r)-4-((3-(5,6-dimethylpyridin-3-yl)-2-oxo-2,3-dihydro-1H-benzo[d]imidazol-1-yl)methyl)cyclo-hexyl)-2-methylnicotinamide]
